Drawing on ChEMBL document CHEMBL3860057, “Design and Synthesis of Potent Quinazolines as Selective β-Glucocerebrosidase Modulators” (J Med Chem, 2016), this text covers ΔTm and IC50 for 2 compounds.

Test [1] concerns the target T1, Lysosomal acid glucosylceramidase (Homo sapiens) (UniProt P04062).
T1 sequence (whole entry): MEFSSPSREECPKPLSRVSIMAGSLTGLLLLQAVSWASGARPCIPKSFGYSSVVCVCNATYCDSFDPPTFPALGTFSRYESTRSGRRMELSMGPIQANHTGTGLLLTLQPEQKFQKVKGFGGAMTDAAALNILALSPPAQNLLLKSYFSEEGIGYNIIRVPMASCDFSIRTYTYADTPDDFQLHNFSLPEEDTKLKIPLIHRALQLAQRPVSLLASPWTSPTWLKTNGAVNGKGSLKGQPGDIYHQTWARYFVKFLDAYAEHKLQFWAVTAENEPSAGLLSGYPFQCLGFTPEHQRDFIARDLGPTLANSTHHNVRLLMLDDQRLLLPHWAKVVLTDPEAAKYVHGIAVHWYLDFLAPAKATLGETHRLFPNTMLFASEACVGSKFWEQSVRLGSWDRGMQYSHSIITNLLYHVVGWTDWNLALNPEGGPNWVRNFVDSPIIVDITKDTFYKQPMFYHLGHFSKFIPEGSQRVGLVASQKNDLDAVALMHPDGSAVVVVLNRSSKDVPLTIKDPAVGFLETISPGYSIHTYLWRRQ
Description: Binding affinity to synthetic recombinant wild type GCase enzyme velaglucerase alfa (unknown origin) assessed as thermal stabilization by measuring change in melting temperature at lower concentration at pH 5 for every 10 secs by Sypro Orange-dye based fluorescence thermal shift assay

Test [2] concerns the target T2, Lysosomal acid glucosylceramidase (Homo sapiens, UniProt P04062).
T2 sequence (P04062 whole entry): T1 sequence (whole entry)
Put plainly: Inhibition of synthetic recombinant wild type GCase enzyme velaglucerase alfa (unknown origin) at pH 5.9 preincubated for 5 mins followed by addition of 4-Methylumbelliferyl beta-D-glucopyranoside as substrate measured after 30 mins by fluorescence analysis.

What is called ΔTm is the change in melting temperature against a reference sample. As for `c1ccc2c(c1)CC(Nc1nc(-c3ccsc3)nc3ccccc13)C2`, in test [1], the ΔTm is 11 °C.

The IC50 is the concentration needed to halve the response being measured. For the compound `C[C@H]1CC[C@H](Nc2nc(-c3cccnc3)nc3ccccc23)CC1`, in test [2], the IC50 is 20 nM.
